Assay results reported in US8889671B2, “Compounds and methods for treating bacterial infections” (AstraZeneca AB, priority 2013, dated 2014).
≈ marks a conversion by molar mass, not a printed value. Read-outs that look alike come from different tables or passages of the source.

Key:
[1] = system: Streptococcus pyogenes; experiment: Susceptibility testing (MIC) Assay 1, broth microdilution; type: cell-based; conditions: Streptococcus pyogenes, Streptococcus pyrgenes, in vivo strain; read-out: Spy MIC
[2] = system: Streptococcus pneumoniae; experiment: as above; type: cell-based
[3] = system: Staphylococcus aureus; experiment: as above; type: cell-based; conditions: Staphylococcus aureus
[4] = system: Pseudomonas aeruginosa; experiment: Susceptibility testing (MIC) Assay 2, broth microdilution; type: cell-based; conditions: PAO1, read-out: Pae MIC
[5] = system: Haemophilus influenzae; experiment: as above; type: cell-based; conditions: ATCC51907, Haemophilus influenzae, ATCC 51907, in vivo strain, read-out: Hin MIC
[6] = system: Escherichia coli; experiment: as above; type: cell-based; conditions: K12, read-out: Eco MIC
[7] = system: Klebsiella pneumoniae; experiment: as above; type: cell-based; conditions: clinical isolate, mucoid, read-out: Kpn MIC
[8] = target: Escherichia coli DNA gyrase A/B tetramer (Escherichia coli (strain K12), UniProt P0AES4+P0AES6); experiment: DNA gyrase supercoiling activity fluorescence polarisation assay; type: biochemical; conditions: Eco Gyr FP Mean IC50, E. coli DNA gyrase supercoiling, 0.3 mM ATP
Summary of the method: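 IC50 derived by nonlinear regression from BODIPY-FL fluorescence anisotropy, read 60 min after quenching with labelled triplex-forming probe (pH 3.5). Reaction: 5 nM gyrase tetramer, 130 micrograms/mL relaxed plasmid, 0.3 mM ATP, 4 mM MgCl2, pH 7.5, typically 30 min at ambient temperature, 5-10 compound concentrations.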

[9] = in vivo strain (footnote b), read-out: Spn(b) MIC
[10] = in vivo strain (footnote c), read-out: Spn(c) MIC
[11] = Staphylococcus aureus in vivo strain, MSQS, read-out: Sau(d) MIC
[12] = in vivo strain, MRQR, read-out: Sau(e) MIC

Structure (SMILES)	MIC [1] [µM]	MIC [2, 9] [µM]	MIC [2, 10] [µM]	MIC [3, 11] [µM]	MIC [3, 12] [µM]	MIC ([3]; serum, read-out: Sau(f) MIC) [µM]	MIC [4] [µM]	MIC [5] [µM]	MIC [6] [µM]	MIC [7] [µM]	IC50 [8] [nM]
C[C@@H]1CN2c3c(cc4c(N5C(=O)OC[C@@H]5c5ncccn5)noc4c3F)CC3(C(=O)NC(=O)NC3=O)[C@H]2[C@H](C)O1 [Example 64, (2R,4S,4aS)-11-fluoro-2,4-dimethyl-8-((S)-2-oxo-4-(pyrimidin-2-yl)oxazolidin-3-yl)-2,4,4a,6-tetrahydro-1H,1′H-spiro[isoxazolo[4,5-g][1,4]oxazino[4,3-a]quinoline-5,5′-pyrimidine]-2′,4′,6′(3′H)-trione]	6.2 (≈ 3.42 µg/mL)	12 (≈ 6.62 µg/mL)	6.2 (≈ 3.42 µg/mL)	6.2 (≈ 3.42 µg/mL)	25 (≈ 13.8 µg/mL)	25 (≈ 13.8 µg/mL)	> 200	3.1 (≈ 1.71 µg/mL)	> 200	> 200	> 2100
C#C[C@H]1COC(=O)N1c1noc2c(F)c3c(cc12)CC1(C(=O)NC(=O)NC1=O)[C@H]1[C@H](C)O[C@H](C)CN31 [Example 65]	0.78 (≈ 0.388 µg/mL)	0.78 (≈ 0.388 µg/mL)	1.6 (≈ 0.796 µg/mL)	0.39 (≈ 0.194 µg/mL)	1.6 (≈ 0.796 µg/mL)	1.6 (≈ 0.796 µg/mL)	> 200	0.78 (≈ 0.388 µg/mL)	3.1 (≈ 1.54 µg/mL)	200 (≈ 99.5 µg/mL)	120
C[C@@H]1CN2c3c(cc4c(N5C(=O)OC[C@@H]5C)noc4c3Cl)CC3(C(=O)NC(=O)NC3=O)[C@H]2[C@H](C)O1 [Example 66, (2R,4S,4aS)-11-Chloro-2,4-dimethyl-8-((S)-4-methyl-2-oxooxazolidin-3-yl)-2,4,4a,6-tetrahydro-1H, 1′H-spiro[isoxazolo[4,5-g][1,4]oxazino[4,3-a]quinoline-5,5′-pyrimidine]-2′,4′,6′(3′H)-trione]	0.39 (≈ 0.197 µg/mL)	0.39 (≈ 0.197 µg/mL)	0.78 (≈ 0.393 µg/mL)	0.39 (≈ 0.197 µg/mL)	0.78 (≈ 0.393 µg/mL)	0.78 (≈ 0.393 µg/mL)	> 200	0.78 (≈ 0.393 µg/mL)	6.2 (≈ 3.12 µg/mL)	100 (≈ 50.4 µg/mL)	170
C[C@@H]1CN2c3c(cc4c(N5C(=O)OC[C@@H]5c5ncnn5C)noc4c3F)CC3(C(=O)NC(=O)NC3=O)[C@H]2[C@H](C)O1 [Example 68, (2R,4S,4aS)-11-Fluoro-2,4-dimethyl-8-((S)-4-(1-methyl-1H-1,2,4-triazol-5-yl)-2-oxooxazolidin-3-yl)-2,4,4a,6-tetrahydro-1H,1′H-spiro[isoxazolo[4,5-g][1,4]oxazino[4,3-a]quinoline-5,5′-pyrimidine]-2′,4′,6′(3′H)-trione]	3.1 (≈ 1.72 µg/mL)	3.1 (≈ 1.72 µg/mL)	6.2 (≈ 3.44 µg/mL)	12 (≈ 6.65 µg/mL)	25 (≈ 13.9 µg/mL)	12 (≈ 6.65 µg/mL)	> 200	1.6 (≈ 0.887 µg/mL)	200 (≈ 111 µg/mL)	> 200	220
C[C@@H]1CN2c3c(cc4c(N5C(=O)OC[C@H]5c5ncnn5C)noc4c3F)CC3(C(=O)NC(=O)NC3=O)[C@H]2[C@H](C)O1 [Example 69, (2R,4S,4aS)-11-Fluoro-2,4-dimethyl-8-((R)-4-(1-methyl-1H-1,2,4-triazol-5-yl)-2-oxooxazolidin-3-yl)-2,4,4a,6-tetrahydro-1H,1′H-spiro[isoxazolo[4,5-g][1,4]oxazino[4,3-a]quinoline-5,5′-pyrimidine]-2′,4′,6′(3′H)-trione]	3.1 (≈ 1.72 µg/mL)	12 (≈ 6.65 µg/mL)	12 (≈ 6.65 µg/mL)	12 (≈ 6.65 µg/mL)	25 (≈ 13.9 µg/mL)	12 (≈ 6.65 µg/mL)	> 200	3.1 (≈ 1.72 µg/mL)	> 200	> 200	600
C[C@@H]1CN2c3c(cc4c(N5C(=O)OC[C@@H]5[C@H](C)O)noc4c3F)CC3(C(=O)NC(=O)NC3=O)[C@H]2[C@H](C)O1 [Example 70]	1.6 (≈ 0.828 µg/mL)	1.6 (≈ 0.828 µg/mL)	3.1 (≈ 1.6 µg/mL)	12 (≈ 6.21 µg/mL)	50 (≈ 25.9 µg/mL)	25 (≈ 12.9 µg/mL)	> 200	1.6 (≈ 0.828 µg/mL)	200 (≈ 103 µg/mL)	> 200	610
C[C@@H]1CN2c3c(cc4c(N5C(=O)OC[C@@H]5CC#N)noc4c3F)CC3(C(=O)NC(=O)NC3=O)[C@H]2[C@H](C)O1 [Example 71, {(4S)-3-[(2R,4S,4aS)-11-Fluoro-2,4-dimethyl-2′,4′,6′-trioxo-1,1′,2,3′,4,4′,4a,6′-octahydro-2′H,6H-spiro[1,4-oxazino[4,3-a][1,2]oxazolo[4,5-g]quinoline-5,5′-pyrimidin]-8-yl]-2-oxo-1,3-oxazolidin-4-yl}acetonitrile]	1.6 (≈ 0.82 µg/mL)	1.6 (≈ 0.82 µg/mL)	1.6 (≈ 0.82 µg/mL)	3.1 (≈ 1.59 µg/mL)	6.2 (≈ 3.18 µg/mL)	3.1 (≈ 1.59 µg/mL)	> 200	1.6 (≈ 0.82 µg/mL)	50 (≈ 25.6 µg/mL)	> 200	160
C[C@@H]1CN2c3c(cc4c(N5C(=O)OC[C@@H]5[C@@H](O)CO)noc4c3F)CC3(C(=O)NC(=O)NC3=O)[C@H]2[C@H](C)O1 [Example 72]	0.39 (≈ 0.208 µg/mL)	0.78 (≈ 0.416 µg/mL)	3.1 (≈ 1.65 µg/mL)	25 (≈ 13.3 µg/mL)	50 (≈ 26.7 µg/mL)	25 (≈ 13.3 µg/mL)	> 200	3.1 (≈ 1.65 µg/mL)	> 200	> 200	290
C[C@@H]1CN2c3c(cc4c(N5C(=O)OC[C@@H]5[C@H](O)CO)noc4c3F)CC3(C(=O)NC(=O)NC3=O)[C@H]2[C@H](C)O1 [Example 73]	0.78 (≈ 0.416 µg/mL)	0.78 (≈ 0.416 µg/mL)	3.1 (≈ 1.65 µg/mL)	25 (≈ 13.3 µg/mL)	100 (≈ 53.3 µg/mL)	25 (≈ 13.3 µg/mL)	> 200	6.2 (≈ 3.31 µg/mL)	> 200	> 200	340
C[C@@H]1CN2c3c(cc4c(N5C(=O)OC[C@@H]5C=NO)noc4c3F)CC3(C(=O)NC(=O)NC3=O)[C@H]2[C@H](C)O1 [Example 74, (2R,4S,4aS)-11-fluoro-8-{(4S)-4-[(hydroxyimino)methyl]-2-oxo-1,3-oxazolidin-3-yl}-2,4-dimethyl-1,2,4,4a-tetrahydro-2′H,6H-spiro[1,4-oxazino[4,3-a][1,2]oxazolo[4,5-g]quinoline-5,5′-pyrimidine]-2′,4′,6′(1′H,3′H)-trione]	1.6 (≈ 0.826 µg/mL)	1.6 (≈ 0.826 µg/mL)	1.6 (≈ 0.826 µg/mL)	6.2 (≈ 3.2 µg/mL)	12 (≈ 6.2 µg/mL)	12 (≈ 6.2 µg/mL)	> 200	0.78 (≈ 0.403 µg/mL)	100 (≈ 51.6 µg/mL)	> 200	470
C[C@@H]1CN2c3c(cc4c(N5C[C@H](C#N)OC5=O)noc4c3F)CC3(C(=O)NC(=O)NC3=O)[C@H]2[C@H](C)O1 [Example 75, (5R)-3-[(2R,4S,4aS)-11-Fluoro-2,4-dimethyl-2′,4′,6′-trioxo-1,1′,2,3′,4,4′,4a,6′-octahydro-2′H,6H-spiro[1,4-oxazino[4,3-a][1,2]oxazolo[4,5-g]quinoline-5,5′-pyrimidin]-8-yl]-2-oxo-1,3-oxazolidine-5-carbonitrile]	0.55 (≈ 0.274 µg/mL)	0.78 (≈ 0.389 µg/mL)	1.62 (≈ 0.807 µg/mL)	0.28 (≈ 0.14 µg/mL)	2.2 (≈ 1.1 µg/mL)	0.39 (≈ 0.194 µg/mL)	> 200	0.78 (≈ 0.389 µg/mL)	100 (≈ 49.8 µg/mL)	> 200	710
